In article PMC12475174 (Scientific Reports, 2025):
Marks after values point to notes of the source that are not given here.

Assays:
[1] = test system: Allium cepa root meristem cells; assay: Chromosomal abnormality, MN and mitotic index test; format: in vivo; conditions: 0.0714 mg/L, 72 h germination
[2] = test system: Allium cepa root meristem cells; assay: Comet assay; format: in vivo; conditions: 0.0714 mg/L, 72 h germination

[N-]=[N+]=[N-].[Na+] [NaN3, sodium azide] was tested. Which Binuclear cell ([1]; 1.000 cells per group) did it give?
The Binuclear cell was 71.9 ± 3.95^a.

What about the Bridge ([1]; 1.000 cells per group) of the same molecule?
The Bridge was 48.3 ± 4.20^a.

And the Disorientation ([1]; 1.000 cells per group)?
The Disorientation was 56.4 ± 4.16^a.

And the Fragment ([1]; 1.000 cells per group)?
Its Fragment is 34.9 ± 3.59^a.

And the Micronucleus ([1]; 1.000 cells per group)?
The Micronucleus was 75.7 ± 8.27^a.

And the Nucleus bud ([1]; 1.000 cells per group)?
The Nucleus bud was 41.0 ± 3.81^a.

What about the Sticky chromosome ([1]; 1.000 cells per group) of the same molecule?
The Sticky chromosome was 72.7 ± 4.74^a.

What about the “Unequal distribution of chromatin” value ([1]; 1.000 cells per group) of the same molecule?
The value was 51.5 ± 3.72^a.

What about the Vagrant chromosome ([1]; 1.000 cells per group) of the same molecule?
Its Vagrant chromosome is 67.7 ± 3.82^a.

And the Micronucleus ([1]; 1.000 cells per group, listed as NaN₃)?
Its Micronucleus is 75.7 ± 8.27.

And the “Mitotic index (%)” value ([1]; 10.000 cells per group)?
The value was 6.75%.

And the “Mitotic index: number of dividing cells” value ([1]; 10.000 cells per group)?
The value was 675 ± 11.2.

What about the “Head DNA (%)” value [2] of the same molecule?
The value was 25.0 ± 1.35^e %.

What about the Head density [2] of the same molecule?
Its Head density is 75.475.

What about the “Head diameter (px)” value [2] of the same molecule?
Its value is 8.000 px.

What about the “Tail DNA (%)” value [2] of the same molecule?
Its value is 75.0 ± 1.35^a %.

And the Tail density [2]?
Its Tail density is 196.278.

And the “Tail length (px)” value [2]?
The value was 72.000 px.

What about the Tail moment [2] of the same molecule?
The Tail moment was 53.981.

And the “Tail DNA (%)” value ([2]; listed as NaN₃)?
Its value is 75.0 ± 1.35%.
